The text below walks through data of a melting point compilation (Tetko et al.).

As usually defined, the melting point is the temperature, or range, at which the solid turns liquid.

SMILES strings stand for the structures.

In turn, `Nc1nc(-c2ccccc2)c(-c2ncc[nH]2)s1` displayed a melting point of 256 to 258 °C.
In turn, `COC(=O)c1ccc(F)c(S(=O)(=O)Cl)c1` registered a melting point of 48 to 50 °C.
As to `O=C(O)c1cc(/C=C/c2ccc(C(F)(F)F)cc2)nc2ccc(Br)cc12`, the melting point is 316 to 318 °C.
On to `O=C(CCl)/N=c1\sccn1Cc1ccccc1Cl`, for which the melting point fell in the range of 82 to 84 °C.
Molecule `CC(=O)c1sc(-c2ccc(Br)cc2)nc1C` showed a melting point of 103 to 105 °C.
Molecule `CCOc1ccc2ncc(C#N)c(Cl)c2c1` showed a melting point of 125 to 127 °C.
Molecule `C=Cn1ccnc1CO` gave a melting point of 103 to 105 °C.
In turn, `NC(=S)NCC1CCC1` returned a melting point of 123 to 125 °C.
For `FC(F)Oc1cccc2cccnc12`, the melting point fell in the range of 64 to 66 °C.
With `CCOc1cc(C(=O)N(C)C)ccc1N`, the melting point lay within 107 to 109 °C.
`Cc1ccc(-n2nc(C(C)(C)C)cc2N)cc1`: the melting point was in the range of 116 to 118 °C.
In turn, `Clc1ccc(-c2noc(Cl)n2)cc1` returned a melting point of 59 to 61 °C.
`CCc1c(C(=O)O)nnn1-c1cccc(N)c1`: the melting point was in the range of 179 to 181 °C.
Next, `CC(C)C(C#N)NC(=O)c1ccccc1` (centres undefined): 106 to 108 °C; `O=Cc1cccc(OCCCC(=O)O)c1`: 58 to 60 °C.
Then `Cc1nc2c(F)cccc2c(Cl)c1C`, with 95 to 97 °C.
`O=C(c1ccc2c(c1)CCO2)c1cc(Cl)ccc1Cl` had a melting point of 81 to 83 °C.
Molecule `Sc1nnc(-c2cccnc2)n1Cc1ccco1` had a melting point of 117 to 119 °C.
On to `COc1ccccc1-c1ccccc1C(=O)O`, for which the melting point fell in the range of 149 to 151 °C.
Next, `COc1ccc(NS(=O)(=O)c2ccc(NN)c([N+](=O)[O-])c2)cc1`: 204 to 206 °C.
In turn, `O=C(O)Cn1ccc(=O)[nH]c1=O` had a melting point of 279 to 281 °C.
`O=C1OCCN1c1ccc([N+](=O)[O-])cc1` yielded a melting point of 154 to 156 °C.
`NC(=O)c1cnn2c(C(=O)O)ccnc12` registered a melting point of 199 to 201 °C.
The molecule `NCc1cccnc1N1CCOCC1` displayed a melting point of 41 to 43 °C.
As for `COCCOc1ccc2[nH]ccc2c1`, the melting point lay in the range of 61 to 63 °C.
Next, `O=[N+]([O-])c1ccc(Br)c2c1CNCC2`: 81 to 83 °C; `N#Cc1cc([N+](=O)[O-])ccc1N1CCC(C(=O)O)CC1`: 161 to 163 °C; `NC(=O)N1CCOCC1`: 106 to 108 °C.
`c1cc(-c2ccsc2)n[nH]1` had a melting point of 110 to 112 °C.
In the case of `O=C(O)CSCC(=O)Nc1cccc(Br)c1`, the melting point lay in the range of 63 to 65 °C.
In the case of `O=C1COc2cc(OCc3ccccc3)ccc21`, the melting point fell in the range of 99 to 101 °C.
As to `NS(=O)(=O)c1ccccc1O`, the melting point lay in the range of 135 to 137 °C.
On to `OCCN(Cc1ccccc1)Cc1ccccc1`, for which the melting point was in the range of 41 to 43 °C.
Take `COc1cc(CCC(=O)O)ccc1OCC(F)(F)F`: the melting point lay in the range of 103 to 105 °C.
Then `Nc1ccc(N2CCc3ccccc32)cc1C(=O)O`, with 189 to 191 °C; and `CN(c1ccccc1)S(=O)(=O)c1ccccc1C(=O)O`, with 136 to 138 °C; and `O=C(O)CCCCOc1ccc2oc3ccccc3c2c1`, with 114 to 116 °C.
In turn, `Nc1cc(-c2cccs2)ncn1` gave a melting point of 222 to 224 °C.
On to `Cc1[nH]c2ccccc2c1C1CCNCC1`, for which the melting point was 222 to 224 °C.
In turn, `COCCOc1cc2c(cc1CO)OCO2` came in with a melting point of 56 to 58 °C.
On to `NC(=NO)c1ccc(Oc2ccccc2)nc1`, for which the melting point lay within 159 to 161 °C.
Then `O=C(c1ccccc1)c1cc(Cl)ccc1Cl`, with 91 to 93 °C.
The molecule `Cc1nc(-c2ccncc2)nc(O)c1C` yielded a melting point of 256 to 258 °C.
Molecule `O=C(Nc1ccc(O)cc1)c1ccco1` registered a melting point of 218 to 220 °C.
Turning to `Cc1nn(CCO)c(C)c1C=O`, the melting point was 67 to 69 °C.
Regarding `CCN(C(=O)OC(C)(C)C)C(C#N)c1cccnc1` (centres undefined), the melting point lay within 66 to 68 °C.
`O=S(=O)(Cl)Cc1c(F)cccc1F`: the melting point fell in the range of 73 to 75 °C.
Next, `CC(C)NC(CCO)C1CCCCC1` (centres undefined): 35 to 37 °C.
`ON=Cc1ccc(OCc2cccnc2)cc1` gave a melting point of 187 to 189 °C.
`COC(=O)c1cc(N)c(OC)c(OC)c1` displayed a melting point of 127 to 129 °C.
Then `CC(=O)c1ccc(S(=O)(=O)NCc2ccco2)cc1`, with 107 to 109 °C; and `CC12CCC(CC1=NNC(=O)CCl)C2(C)C` (centres undefined), with 185 to 187 °C.
In the case of `CC(=O)NCCc1ccc(C(=O)CCl)cc1F`, the melting point lay within 97 to 99 °C.
In turn, `COCCn1c(S)nc2cc(Cl)ccc21` had a melting point of 195 to 197 °C.
Molecule `Cc1cc(Oc2ccc(C(=O)O)cn2)ccc1C(C)C` came in with a melting point of 122 to 124 °C.
As to `CC(=Cc1cccc(Cl)c1)C(=O)O`, the melting point was in the range of 99 to 101 °C.
Next, `Nc1cc(=O)[nH]c(=O)n1Cc1ccc(Cl)cc1`: 279 to 281 °C; `CC1CN(c2ccccc2C=O)CC(C)O1` (centres undefined): 94 to 96 °C; `CCOc1ccc(-c2csc(N)n2)cc1`: 248 to 250 °C.
For `CC1CN(C(=O)c2cnn(C)c2N)CC(C)O1` (centres undefined), the melting point fell in the range of 152 to 154 °C.
Then `O=C(O)c1ccn(-c2ccccc2)n1`, with 138 to 140 °C.
As for `O=c1[nH]cnc2cc(N3CCOCC3)c([N+](=O)[O-])cc12`, the melting point fell in the range of 309 to 311 °C.
Then `Cc1ccc(N)cc1C(=O)N(C)C`, with 114 to 116 °C; and `O=C(O)C1CCCN(S(=O)(=O)c2ccc(Br)cc2)C1` (centres undefined), with 207 to 209 °C; and `Cc1cc(C(=O)O)n2nc(C)cc2n1`, with 189 to 191 °C.
In the case of `O=Cc1cnc(-c2ccc(Cl)cc2)nc1`, the melting point was in the range of 183 to 185 °C.
`NN1CCN(C(c2ccccc2)c2ccccc2)CC1` registered a melting point of 108 to 110 °C.
For `CS(=O)(=O)N1CCN(S(=O)(=O)Cl)CC1`, the melting point lay within 222 to 224 °C.
`Cc1ccc(-c2nc(N)sc2CN(C)C)cc1` returned a melting point of 175 to 177 °C.
In the case of `O=C(Nc1ccccc1)Nc1ccc(C(=O)O)cc1`, the melting point was 260 to 262 °C.
Turning to `Cc1ccc2c(CCl)cc(=O)oc2c1`, the melting point lay within 170 to 172 °C.
Molecule `O=C(CCl)c1ccc2c(c1)-c1cc(C(=O)CCl)ccc1C2` returned a melting point of 200 to 202 °C.
Take `Cn1cc(C(=O)Nc2ccc(O)cc2)cn1`: the melting point was 231 to 233 °C.
Then `C=CCN1C(=O)C(=NN)c2ccccc21`, with 129 to 132 °C.
Next, `CN(C(=O)C(C)(C)C)c1ccc(O)cc1`: 189 to 191 °C.
Then `Cc1nc2cc(O)nn2c(C)c1CCC(=O)O`, with 302 to 304 °C.
`O=C(O)C=Cc1ccc(OCc2ccccc2)cc1` gave a melting point of 141 to 143 °C.
Take `N#Cc1ccc(Cn2cnc3ccccc32)cc1`: the melting point lay within 103 to 105 °C.
Consider `Nc1ccccc1NC12CC3CC(CC(C3)C1)C2`, for which the melting point fell in the range of 92 to 94 °C.
`COC(=O)CCCN1C(=O)NC(C)(C)C1=O`: the melting point fell in the range of 60 to 62 °C.
On to `Cc1[nH]c2ccccc2c1-c1csc(N)n1`, for which the melting point is 168 to 170 °C.
Molecule `N#Cc1ccc(Oc2cccc(N)c2)cc1` returned a melting point of 86 to 88 °C.
Next, `CC(=O)Nc1ccc(Br)cc1[N+](=O)[O-]`: 104 to 106 °C; `CS(=O)(=O)c1ccc(C2CNCCO2)cc1` (centres undefined): 109 to 111 °C.
